Measured values as given in patent US7749540B2, “Compositions comprising modafinil compounds” (Cephalon, Inc., priority 2000, dated 2010).

Tests used:
mice = settings: single administration; cited from earlier work
monkeys = settings: single administration; cited from earlier work
[1] = Water and lipid solubility of modafinil (observation in background)

**Q.** What does the source list for `NC(=O)C[S+]([O-])C(c1ccccc1)c1ccccc1` (stereo not drawn) [modafinil, 2-(benzhydryl-sulfinyl)acetamide]?
**A.** locomotor activity (mice): increased locomotor activity; nocturnal activity (monkeys): increased nocturnal activity; water and lipid solubility [1]: very poor
